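Assay format: 96-well plates, 48-hour exposure. Abbreviation: GI50, concentration required for 50% inhibition of growth.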 Active and inactive are the calls of the source. No stated cut-off is given here; in the data, active = GI50 up to about 1.1 µM and inactive = higher.
Tests used:
Experiment in all cases: NCI anticancer screen, dose series, 48 h
786-0 = system: 786-0
COLO 205 = system: COLO 205
DU-145 = system: DU-145
HCT-15 = system: HCT-15
HOP-62 = system: HOP-62
K562 = system: K562
LOX IMVI = system: LOX IMVI
MCF7 = system: MCF7
MOLT-4 = system: MOLT-4
Malme-3M = system: Malme-3M
NCI-H23 = system: NCI-H23
NCI/ADR-RES = system: NCI/ADR-RES
OVCAR-8 = system: OVCAR-8
SF-295 = system: SF-295
SK-OV-3 = system: SK-OV-3
SN12C = system: SN12C
U-251 = system: U-251
UACC-62 = system: UACC-62
RXF 393 = system: RXF 393
TK-10 = system: TK-10

Row | SMILES | GI50 (786-0) | GI50 (COLO 205) | GI50 (DU-145) | GI50 (HCT-15) | GI50 (HOP-62) | GI50 (K562) | GI50 (LOX IMVI) | GI50 (MCF7) | GI50 (MOLT-4) | GI50 (Malme-3M) | GI50 (NCI-H23) | GI50 (NCI/ADR-RES) | GI50 (OVCAR-8) | GI50 (SF-295) | GI50 (SK-OV-3) | GI50 (SN12C) | GI50 (U-251) | GI50 (UACC-62) | GI50 (RXF 393) | GI50 (TK-10)
1 | O=C1C(CO)=C[C@@H](O)[C@H]2O[C@@H]12 [EPOXYDON] | 39.8 µM (inactive) | > 100 µM (inactive) | > 100 µM (inactive) | > 100 µM | > 100 µM (inactive) | > 100 µM (inactive) | 23.1 µM (inactive) | 21.7 µM (inactive) | > 100 µM (inactive) | > 100 µM (inactive) | 65.6 µM (inactive) | 75.5 µM (inactive) | > 100 µM (inactive) | > 100 µM (inactive) | > 100 µM (inactive) | 18.4 µM (inactive) | 61.5 µM (inactive) | > 100 µM (inactive) |  | 
2 | Cc1nc2c(Cl)cc(Cl)cc2c2c1CCO2 | > 100 µM (inactive) | > 100 µM (inactive) | > 100 µM (inactive) | > 100 µM |  | > 100 µM (inactive) | > 100 µM (inactive) | > 100 µM (inactive) | 75.3 µM (inactive) | > 100 µM (inactive) | > 100 µM (inactive) | > 100 µM (inactive) | > 100 µM (inactive) | > 100 µM (inactive) |  | > 100 µM (inactive) | > 100 µM (inactive) | > 100 µM (inactive) | 87.3 µM (inactive) | > 100 µM (inactive)
3 | CC[C@@]1(O)C(=O)OCc2c1cc1n(c2=O)Cc2c-1nc1ccccc1c2/C=N\NC(=O)CN | 0.0908 µM (active) | 15.6 µM (inactive) | 0.0989 µM (active) | 0.221 µM | 0.0533 µM (active) | 0.586 µM (active) | 0.0989 µM (active) | 0.0495 µM (active) | < 0.0316 µM (active) | 2.76 µM (inactive) | 0.0676 µM (active) | 0.726 µM (active) | 0.273 µM (active) | 0.143 µM (active) |  | 0.0458 µM (active) | 0.135 µM (active) | 0.0333 µM (active) | 0.873 µM (active) | 26.1 µM (inactive)
4 | CC(=O)OC1[C@@H](OC(C)=O)CN(OCc2ccccc2)C[C@H]1OC(C)=O (stereo not given in full) | > 100 µM (inactive) | > 100 µM (inactive) | > 100 µM (inactive) | > 100 µM | > 100 µM (inactive) | > 100 µM (inactive) | > 100 µM (inactive) | > 100 µM (inactive) | > 100 µM (inactive) |  | > 100 µM (inactive) | > 100 µM (inactive) | > 100 µM (inactive) | > 100 µM (inactive) | 33 µM (inactive) | > 100 µM (inactive) | > 100 µM (inactive) | > 100 µM (inactive) | > 100 µM (inactive) | > 100 µM (inactive)
5 | OCCCSc1ccccc1SCCCO | > 100 µM (inactive) | > 100 µM (inactive) | > 100 µM (inactive) | > 100 µM | > 100 µM (inactive) | > 100 µM (inactive) | > 100 µM (inactive) | > 100 µM (inactive) | > 100 µM (inactive) |  | > 100 µM (inactive) | > 100 µM (inactive) | > 100 µM (inactive) | > 100 µM (inactive) | > 100 µM (inactive) | > 100 µM (inactive) | > 100 µM (inactive) | > 100 µM (inactive) |  | > 100 µM (inactive)
6 | CC(C)(C)/C(O)=C\c1nc2cc(F)c(F)cc2[nH]c1=O | > 100 µM (inactive) | > 100 µM (inactive) | 25.7 µM (inactive) | > 100 µM | > 100 µM (inactive) | > 100 µM (inactive) | > 100 µM (inactive) | > 100 µM (inactive) | 48.4 µM (inactive) |  | > 100 µM (inactive) | > 100 µM (inactive) | > 100 µM (inactive) | > 100 µM (inactive) | > 100 µM (inactive) |  | > 100 µM (inactive) | > 100 µM (inactive) | > 100 µM (inactive) | > 100 µM (inactive)
7 | COC1CC(COCc2ccccc2)CC(OC)O1 (stereo not given) | > 100 µM (inactive) | > 100 µM (inactive) | > 100 µM (inactive) | > 100 µM | > 100 µM (inactive) | > 100 µM (inactive) | 64 µM (inactive) | > 100 µM (inactive) | > 100 µM (inactive) |  | > 100 µM (inactive) | > 100 µM (inactive) | > 100 µM (inactive) | > 100 µM (inactive) | > 100 µM (inactive) | > 100 µM (inactive) |  | > 100 µM (inactive) | > 100 µM (inactive) | > 100 µM (inactive)
8 | Nc1ccc(C(=O)c2cn(CCN3CCOCC3)c3ccccc23)c2ccccc12 | 54.6 µM (inactive) | 24.8 µM (inactive) | 63 µM (inactive) | 18.2 µM | 83.4 µM (inactive) | 17.3 µM (inactive) | 23.4 µM (inactive) | 34 µM (inactive) | 19.4 µM (inactive) | 34.1 µM (inactive) | 23.8 µM (inactive) | 22.7 µM (inactive) | 20.2 µM (inactive) | 33.3 µM (inactive) | > 100 µM (inactive) |  | 55.6 µM (inactive) | 34 µM (inactive) |  | 

— ChEMBL document CHEMBL1201862, “PubChem BioAssay data set” (2004)
